# US11407737B2, “Inhibitors of RAF kinases” (Kinnate Biopharma Inc., priority 2020, dated 2022)
# Biological target: human RAF1 (Homo sapiens (Human), UniProt P04049)
# Assay: Protein kinase assay (radiometric 33P-ATP, MEK1 (K97R) substrate), RAF-1
# Type: biochemical
# Conditions: human MEK1 (K97R) substrate 3 micromolar, ATP 10 micromolar; 10-dose, 3-fold serial dilution starting at 10 micromolar; read-out: RAF-1 IC50
# How it was run: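 Radiometric filter-binding assay with RAF1 and MEK1 (K97R) substrate at 3 micromolar and 10 micromolar final ATP, in HEPES pH 7.5 buffer with 1% DMSO. Reactions ran 2 hr at room temperature with [γ-33P]ATP. IC50 was derived from remaining activity relative to DMSO control.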
# Chain of human RAF1 (P04049 whole entry): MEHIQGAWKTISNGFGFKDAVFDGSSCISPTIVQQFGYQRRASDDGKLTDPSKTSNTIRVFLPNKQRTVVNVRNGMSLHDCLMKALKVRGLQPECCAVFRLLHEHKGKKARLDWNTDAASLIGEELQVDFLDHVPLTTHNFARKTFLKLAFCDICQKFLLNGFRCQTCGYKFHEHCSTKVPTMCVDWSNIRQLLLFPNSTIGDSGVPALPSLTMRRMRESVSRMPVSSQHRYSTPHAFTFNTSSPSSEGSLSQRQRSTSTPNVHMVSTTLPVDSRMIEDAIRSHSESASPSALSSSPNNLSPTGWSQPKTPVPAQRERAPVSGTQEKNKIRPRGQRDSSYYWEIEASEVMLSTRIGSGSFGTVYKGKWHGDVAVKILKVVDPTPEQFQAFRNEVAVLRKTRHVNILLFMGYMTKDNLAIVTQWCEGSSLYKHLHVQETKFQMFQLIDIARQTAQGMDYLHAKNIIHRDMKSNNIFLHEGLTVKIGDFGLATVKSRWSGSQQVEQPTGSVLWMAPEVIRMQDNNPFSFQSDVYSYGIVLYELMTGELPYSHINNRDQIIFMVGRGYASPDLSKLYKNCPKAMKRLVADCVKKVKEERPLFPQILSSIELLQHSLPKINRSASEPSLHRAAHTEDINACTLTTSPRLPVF
row,SMILES,IC50 [nM]
1,"Cc1ccc(NC(=O)N2CC[C@@H](CC(F)(F)F)C2)cc1-c1cc(-c2cnc(N)[nH]2)nc(N2CCOCC2)c1 [Example 43, (3S)—N-[3-[2-(2-amino-3H-imidazol-4-yl)-6-(morpholin-4-yl)pyridin-4-yl]-4-methylphenyl]-3-(2,2,2-trifluoroethyl)pyrrolidine-1-carboxamide]",1 to 10
2,"Cc1cc(-c2cc(-c3cc(NC(=O)N4CC[C@@H](CC(F)(F)F)C4)ccc3C)cc(N3CCOCC3)n2)n(C)n1 [Example 50, (3S)—N-[3-[2-(2,5-dimethylpyrazol-3-yl)-6-(morpholin-4-yl)pyridin-4-yl]-4-methylphenyl]-3-(2,2,2-trifluoroethyl)pyrrolidine-1-carboxamide]",1 to 10
3,"Cc1ccc(NC(=O)N2CC[C@@H](CC(F)(F)F)C2)cc1-c1cc(-c2cscn2)nc(N2CCOCC2)c1 [Example 42, (3S)—N-[4-methyl-3-[2-(morpholin-4-yl)-6-(1,3-thiazol-4-yl)pyridin-4-yl]phenyl]-3-(2,2,2-trifluoroethyl)pyrrolidine-1-carboxamide]",1 to 10
4,"Cc1cc(F)c(NC(=O)N2CC[C@@H](C(F)(F)C(F)(F)F)C2)cc1-c1cc(-c2cnn(C)c2)nc(N2CCOCC2)c1 (single isomer, unassigned) [Example 80]",1 to 10

# The remaining lines, values ahead:
row,IC50 [nM],SMILES
1,< 1,"Cc1ccc(NC(=O)N2CC[C@@H](CC(F)(F)F)C2)cc1-c1cc([C@@H]2C[C@@H]2CO)nc(N2CCOCC2)c1 [Example 13, (3S)—N-(3-[2-[(1R,2S)-2-(hydroxymethyl)cyclopropyl]-6-(morpholin-4-yl)pyridin-4-yl]-4-methylphenyl)-3-(2,2,2-trifluoroethyl)pyrrolidine-1-carboxamide]"
2,< 1,"Cc1cc(F)c(NC(=O)N2CCO[C@@H](C(F)(F)F)C2)cc1-c1cc(-c2cnn(C)c2)nc(N2CCOCC2)c1 [Example 68, (2R)—N-{2-fluoro-4-methyl-5-[2-(1-methylpyrazol-4-yl)-6-(morpholin-4-yl)pyridin-4-yl]phenyl}-2-(trifluoromethyl)morpholine-4-carboxamide]"
3,< 1,"Cc1cc(F)c(NC(=O)N2CC=C(CC(F)(F)F)C2)cc1-c1cc(-c2cnn(C)c2)nc(N2CCOCC2)c1 [Example 77, N-{2-fluoro-4-methyl-5-[2-(1-methylpyrazol-4-yl)-6-(morpholin-4-yl)pyridin-4-yl]phenyl}-3-(2,2,2-trifluoroethyl)-2,5-dihydropyrrole-1-carboxamide]"
